Laboratory results taken from patent publication US8518957B2, “Methanocarba adenosine derivatives, pharmaceutical compositions, and method of reducing intraocular pressure” (The United States of America, as represented by the …, priority 2009, dated 2013).
Where two headings read alike, the source gives them in different places. One block for each molecule: values may come before it.

How the values were obtained:
human A1 AR [1] = target: T1, human A1 AR (Homo sapiens, UniProt P30542); conditions: cited from earlier work
T1 construct: expressed in transfected cells
T1 sequence (P30542 1-326): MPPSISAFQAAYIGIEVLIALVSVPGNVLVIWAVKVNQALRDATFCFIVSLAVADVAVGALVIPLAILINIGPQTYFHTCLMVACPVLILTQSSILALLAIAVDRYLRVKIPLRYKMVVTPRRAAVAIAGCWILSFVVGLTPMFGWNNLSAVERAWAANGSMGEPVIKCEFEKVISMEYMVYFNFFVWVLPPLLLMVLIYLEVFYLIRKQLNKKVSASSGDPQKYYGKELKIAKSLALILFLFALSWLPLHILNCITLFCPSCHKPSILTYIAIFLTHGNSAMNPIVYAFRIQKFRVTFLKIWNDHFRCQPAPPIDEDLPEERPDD

human A3AR [2] = target: T2, human A3AR (Homo sapiens, UniProt P0DMS8); conditions: model compounds; values from Tosh et al. and Melman et al.; read-out: Affinity (Ki, nM), A3; cited from earlier work
T2 construct: expressed in transfected cells
T2 sequence (P0DMS8 1-318): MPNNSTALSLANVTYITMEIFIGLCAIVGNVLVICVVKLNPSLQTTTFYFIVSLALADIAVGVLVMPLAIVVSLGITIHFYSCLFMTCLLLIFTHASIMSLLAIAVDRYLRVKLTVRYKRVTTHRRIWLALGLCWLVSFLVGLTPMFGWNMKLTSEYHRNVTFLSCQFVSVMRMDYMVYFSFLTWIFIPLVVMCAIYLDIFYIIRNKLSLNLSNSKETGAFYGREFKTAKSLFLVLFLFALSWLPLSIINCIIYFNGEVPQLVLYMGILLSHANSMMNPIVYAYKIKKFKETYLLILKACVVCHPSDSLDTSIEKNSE

hA2AAR [3] = target: T3, hA2AAR (Homo sapiens, UniProt P29274); conditions: cited from earlier work
T3 construct: expressed in transfected cells
T3 sequence (P29274 whole entry): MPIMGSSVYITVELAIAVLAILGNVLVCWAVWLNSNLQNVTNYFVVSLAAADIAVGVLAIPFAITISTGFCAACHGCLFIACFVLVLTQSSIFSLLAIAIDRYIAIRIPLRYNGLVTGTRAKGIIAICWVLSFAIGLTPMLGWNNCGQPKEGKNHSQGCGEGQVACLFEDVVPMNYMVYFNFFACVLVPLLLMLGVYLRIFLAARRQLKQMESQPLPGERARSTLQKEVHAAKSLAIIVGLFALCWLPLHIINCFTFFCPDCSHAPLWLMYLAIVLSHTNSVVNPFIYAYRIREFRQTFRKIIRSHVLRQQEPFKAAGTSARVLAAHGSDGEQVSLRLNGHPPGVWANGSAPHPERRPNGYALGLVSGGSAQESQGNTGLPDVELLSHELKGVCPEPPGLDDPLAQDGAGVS

human A3AR [4] = target: T2, human A3AR; conditions: at 10 μM, relative to NECA 10 μM; values from Tosh et al.; cited from earlier work
hA2AAR [5] = target: T3, hA2AAR; assay: Radioligand binding at human A2A AR ([3H]CGS21680, membranes of HEK-293 cells)
Method: (§1) [^3H](2-[p-(2-Carboxyethyl)phenyl-ethylamino]-5′-N-ethylcarboxamido-adenosine) (37, [^3H]CGS21680, 40.5 Ci/mmol) and [^125I]N^6-(4-amino-3-iodobenzyl)adenosine-5′-N-methyluronamide (38, [^125I]I-AB-MECA, 2200 Ci/mmol) were purchased from Perkin-Elmer Life and Analytical Science (Boston, Mass.). Test compounds were prepared as 5 mM stock solutions in DMSO and stored frozen at −20° C.
(§2) CHO cells stably expressing the recombinant hA1 and hA3Rs, and HEK-293 cells stably expressing the hA2AAR were cultured in Dulbecco's modified Eagle medium (DMEM) and F12 (1:1) supplemented with 10% fetal bovine serum, 100 units/mL penicillin, 100 μg/mL streptomycin, and […] glutamine. In addition, 800 μg/mL geneticin was added to the A2A media, while 500 μg/mL hygromycin was added to the A1 and A3 media. After harvesting, cells were homogenized and suspended in PBS. Cells were then centrifuged at 240 g for 5 min, and the pellet was resuspended in 50 mM Tris-HCl buffer (pH 7.5) containing 10 mM MgCl2. The suspension was homogenized and was then ultra-centrifuged at 14,330 g for 30 min at 4° C. The resultant pellets were resuspended in Tris buffer, incubated with adenosine deaminase (3 units/mL) for 30 min at 37° C. The suspension was homogenized with an electric homogenizer for 10 sec, pipetted into 1 mL vials and then stored at −80° C. until the binding experiments were conducted. The protein concentration was measured using the BCA Protein Assay Kit from Pierce Biotechnology, Inc. (Rockford, Ill.).
(§3) Into each tube in the binding assay was added 50 μL of increasing concentrations of the test ligand in Tris-HCl buffer (50 mM, pH 7.5) containing 10 mM MgCl2, 50 μl, of the appropriate agonist radioligand, and finally 100 μL of membrane suspension. For the A1AR (22 μg of protein/tube) the radioligand used was [^3H]36 (final concentration of 3.5 nM). For the A2AAR (20 μg/tube) the radioligand used was [^3H]37 (10 nM). For the A3AR (21 μg/tube) the radioligand used was [^125I]38 (0.34 nM). Nonspecific binding was determined using a final concentration of 10 μM unlabeled 36 diluted with the buffer. The mixtures were incubated at 25° C. for 60 min in a shaking water bath. Binding reactions were terminated by filtration through Brandel GF/B filters under a reduced pressure using a M-24 cell harvester (Brandel, Gaithersburg, Md.). Filters were washed three times with 3 mL of 50 mM ice-cold Tris-HCl buffer (pH 7.5). Filters for A1 and A2AAR binding were placed in scintillation vials containing 5 mL of Hydrofluor scintillation buffer and counted using a Perkin Elmer Liquid Scintillation Analyzer (Tri-Carb 2810TR). Filters for A3AR binding were counted using a Packard Cobra II γ-counter. The Ki values were determined using GraphPad Prism for all assays.
(§4) [^3H](2-[p-(2-carboxyethyl)phenyl-ethylamino]-5′-N-ethylcarboxamido-adenosine) ([^3H]CGS21680, 40.5 Ci/mmol) and [^125I]N^6-(4-amino-3-iodobenzyl)adenosine-5′-N-methyluronamide ([^125I]I-AB-MECA, 2200 Ci/mmol) were purchased from PerkinElmer. Test compounds were prepared as 5-mM stock solutions in DMSO and stored frozen at −20° C.
(§5) Chinese hamster ovary (CHO) cells were generated by stably expressing the recombinant hA1 and hA3 and human embryonic kidney (HEK) 293 cells stably expressing the hA2AAR in DMEM and F12 (1:1) supplemented with 10% fetal bovine serum, 100 units/mL penicillin, 100 μg/mL streptomycin, and 2 μmol/mL glutamine. 800 μg/mL Geneticin were added to the A2A media and 500 μg/mL hygromycin to the A1 and A3 media. After harvesting the cells, they were homogenized with an electric homogenizer for 10 sec, pipetted them into 1-mL vials, and then stored them at −80° C. until the binding experiments were conducted. The protein concentration was measured with a BCA Protein Assay Kit from Pierce Biotechnology (Rockford, Ill.). […]

human A3AR [6] = target: T2, human A3AR; assay: Radioligand binding at human A3 AR ([125I]I-AB-MECA, membranes of CHO cells)
Method: Test compounds were prepared as 5 mM stock solutions in DMSO and stored frozen at −20° C.
as §2
as §3, with “For the A1AR (22 μg of protein/tube) the radioligand used was [^3H]36 (final concentration of 3.5 nM).” left out, “For the A3AR (21 μg/tube) the radioligand used was [^125I]38 (0.34 nM).” left out, “Filters for A1 and A2AAR binding were placed in scintillation vials containing 5 mL of Hydrofluor scintillation buffer and counted using a Perkin Elmer Liquid Scintillation Analyzer (Tri-Carb 2810TR).” left out
Test compounds were prepared as 5-mM stock solutions in DMSO and stored frozen at −20° C.
Chinese hamster ovary (CHO) cells were generated by stably expressing the recombinant hA1 and hA3 and human embryonic kidney (HEK) 293 cells stably expressing the hA2AAR in DMEM and F12 (1:1) supplemented with 10% fetal bovine serum, 100 units/mL penicillin, 100 μg/mL streptomycin, and 2 μmol/mL glutamine. 800 μg/mL Geneticin were added to the A2A media and 500 μg/mL hygromycin to the A1 and A3 media. After harvesting the cells, they were homogenized with an electric homogenizer for 10 sec, pipetted them into 1-mL vials, and then stored them at −80° C. until the binding experiments were conducted. The protein concentration was measured with a BCA Protein Assay Kit from Pierce Biotechnology (Rockford, Ill.).
Each tube in the binding assay contained 50 μL of increasing concentrations of the test ligand in Tris-HCl buffer (50 mM, pH 7.5) containing 10 mM MgCl2, 50 μL of the appropriate agonist radioligand, and 100 μL membrane suspension, added sequentially. […] For the A2AAR (20 μg/tube), the radioligand [^3H]CGS21680 was used (−10 nM). […] The mixtures were incubated at 25° C. for 60 min in a shaking water bath. The binding reactions were terminated by filtration through Brandel GF/B filters under a reduced pressure with a M-24 cell harvester (Brandel, Gaithersburg, Md.). Filters were washed three times with 3 mL 50-mM ice-cold Tris-HCl buffer (pH 7.5). […] The filters were counted for A3AR binding with a Packard Cobra II γ-counter (PerkinElmer). The Ki values were determined with GraphPad Prism for all assays.

human A3AR [7] = target: T2, human A3AR; assay: Cyclic AMP accumulation assay: inhibition of forskolin-stimulated cyclic AMP production in AR-transfected CHO cells; type: cell-based; conditions: at 10 μM, in comparison to the maximal effect of full agonist NECA at 10 μM
Method: Intracellular cyclic AMP levels were measured with a competitive protein binding method. […] CHO cells that expressed the recombinant human A3AR were harvested by trypsinization. After centrifugation and resuspended in medium, cells were planted in 24-well plates in 1.0 mL medium. After 24 h, the medium was removed and cells were washed three times with 1 mL DMEM, containing 50 mM HEPES, pH 7.4. […] After 45 min forskolin (10 μM) was added to the medium, and incubation was continued for an additional 15 min. […] The cell lysate was resuspended and stored at −20° C. For determination of cyclic AMP production, protein kinase A (PKA) was incubated with [^3H]cyclic AMP (2 nM) in K2HPO4/EDTA buffer (K2HPO4, 150 mM; EDTA, 10 mM), 20 μL of the cell lysate, and 30 μL 0.1 M HCl or 50 μL of cyclic AMP solution (0-16 pmol/200 μL for standard curve). Bound radioactivity was separated by rapid filtration through Whatman GF/C filters and washed once with cold buffer. Bound radioactivity was measured by liquid scintillation spectrometry.
Bound radioactivity was separated by rapid filtration through Whatman GF/C filters and washed the filters once with cold buffer. Bound radioactivity was measured with liquid scintillation spectrometry.

human A1 AR [8] = target: T1, human A1 AR; assay: Radioligand binding at human A1 AR ([3H]NECA, membranes of CHO cells); conditions: Example 7; agonist radioligand [3H]45; read-out: AR Affinity Ki, nM, A1
Method: as §1, §2, §3, §4, §5

[9] = at 10 μM, model compounds, values from Tosh et al. and Melman et al.
[10] = inhibition of radioligand binding at 10 μM, values from Tosh et al.
[11] = Example 7, agonist radioligand [125I]47, read-out: AR Affinity Ki, nM, A3

SMILES: CNC(=O)C12CC1C(n1cnc3c(NCc4cccc(C#CCCCCC(=O)NCCNC(C)=O)c4)nc(Cl)nc31)C(O)C2O (stereo not shown) [Compound 104c]
Ki (human A1 AR [1]; model compounds, values from Tosh et al. and Melman et al., read-out: Affinity (Ki, nM), A1): 181 nM | Ki (human A3AR [2]): 228 nM | % inhibition, A2A (hA2AAR [3]; [9]): (80%)

SMILES: CNC(=O)C12CC1C(n1cnc3c(NCc4cccc(Cl)c4)nc(C#CCCC(=O)NCCNC(=O)CCCCC4SCC5NC(=O)NC54)nc31)C(O)C2O (stereo not shown) [Compound 2]
% inhibition, A1 (human A1 AR [1]; [10]): (1 ± 1%) | % Inhibition of cAMP formation at hA3 AR (human A3AR [4]): 84.5 ± 12.0% | % inhibition, A2A (hA2AAR [3]; [10]): (51 ± 2%)

Ki (hA2AAR [5]; [3H]37, HEK293 cells, read-out: Affinity (Ki, nM), A2A): 4330 ± 500 nM | Ki (human A3AR [6]; [125I]38, CHO cells, read-out: Affinity (Ki, nM), A3): 23.6 ± 3.9 nM | % Inhibition of cAMP formation at hA3 AR (human A3AR [7]): 18.3 ± 7.6%
SMILES: C#CCCCC#Cc1nc(NCc2cccc(Cl)c2)c2ncn(C3C(O)C(O)C4(C(=O)NC)CC34)c2n1 (stereo not drawn) [Compound 8, (1′S, 2′R, 3′S, 4′S, 5′S)-4′-[6-(3-Chlorobenzylamino)-2-(1,6-heptadiynyl)-9H-purin-9-yl]-2′,3′-dihydroxybicyclo[3.1.0]hexane-1′-carboxylic acid N-methylamide]

Ki (hA2AAR [5]; Example 7, agonist radioligand [3H]46, HEK293, read-out: AR Affinity Ki, nM, A2A): 1960 ± 50 nM | Ki (human A1 AR [8]): 37.4 ± 12 nM | Ki (human A3AR [6]; [11]): 3.2 ± 1.1 nM
SMILES: CNC(=O)[C@@]12C[C@@H]1[C@@H](n1cnc3c(NCc4cccc(C#CCCCc5cn(-c6ccc(F)c([N+](=O)[O-])c6)nn5)c4)nc(Cl)nc31)[C@H](O)[C@@H]2O [Compound 203, (1S,2R,3S,4R,5S)-4-(2-Chloro-6-(3-(5-(1-(4-fluoro-3-nitrophenyl)-1H-1,2,3-triazol-4-yl)pent-1-ynyl)benzylamino)-9H-purin-9-yl)-2,3-dihydroxybicyclo[3.1.0]hexane-1-carboxylic acid-N-methylamide]

SMILES: CCCC#Cc1nc(NCc2cccc(Cl)c2)c2ncn(C3C(O)C(O)C4(C(=O)NC)CC34)c2n1 (stereo not shown) [Compound 104b]
% inhibition, A2A (hA2AAR [3]; [9]): (80%)

inhibition at 10 µM (hA2AAR [5]): 19.7% | Ki (human A1 AR [8]): 1490 ± 230 nM | Ki (human A3AR [6]; [11]): 113 ± 24 nM
SMILES: C#CCCCCC#Cc1cccc(CNc2nc(Cl)nc3c2ncn3[C@H]2[C@H](O)[C@H](O)[C@]3(C(=O)NC)C[C@H]23)c1 [Compound 201, (1S,2R,3S,4R,5S)-4-[2-Chloro-6-{3-(1,7-octadiynyl)benzylamino}-9H-purin-9-yl]-2,3-dihydroxybicyclo[3.1.0]hexane-1-carboxylic acid N-methylamide]
